Measurements taken from PMC7247425, “MRP1-Collateral Sensitizers as a Novel Therapeutic Approach in Resistant Cancer Therapy: An In Vitro and In Vivo Study in Lung Resistant Tumor” (International Journal of Molecular Sciences, 2020).
pEC50: −log10 of the molar value.

Assays:
[1] = test system: MCF7/DX; parameters: method as in PMID 24106081; conditions: resistant MCF7/DX overexpressing P-gp; read-out: EC50, cytotoxic activity in MCF7/DX; cited from earlier work
[2] = test system: A549/DX; experiment: Mitochondrial ROS production in A549/DX (MitoSOX Red); format: cell-based, human; conditions: 24 h; for Mitochondrial ROS production with cis-Pt: 10 μM + cis-Pt 25 μM; for Mitochondrial ROS production, compound alone / Mitochondrial ROS production with Mitotempol: 10 μM; for Mitochondrial ROS production with Mitotempol: Mitotempol 10 mM
Description: An increase in ROS of mitochondrial origin is particularly effective in killing multidrug-resistant cells. To investigate whether the ROS were of mithocondrial origin, the same experiment was set up evaluating ROS production at 24 h with Mitotempol, the scavenger of mithocondrial ROS.
Here, 1 × 10^6 cells were re-suspended in a final volume of 0.5 mL PBS and incubated for 30 min at 37 °C with 5 μM of the fluorescent probe MitoSOX Red (Invitrogen Life Technology, Milano, Italy) in the dark. Cells were then centrifuged at 13,000× g at 37 °C and re-suspended in 0.5 mL PBS. The fluorescence of each sample, considered as the index of ROS levels, was read at 510 (λ excitation) and 580 nm (λ emission) using a Synergy HT Multi-Mode Microplate Reader (Bio-Tek Instruments). The results were expressed as nmol mitochondrial ROS/mg cell proteins. A preliminary titration curve was set up by incubating the cells for 1 h with the cells treated with serial dilutions (10–0.01 nM) of the pro-oxidant agent menadione.

[3] = test system: P-gp; parameters: method as in PMID 24106081; conditions: MCF7 cell line; read-out: EC50, P-gp inhibition; cited from earlier work
[4] = test system: MCF7 cell line; parameters: method as in PMID 24106081; conditions: MCF7 cells; read-out: EC50, cytotoxicity in MCF7; cited from earlier work
[5] = test system: A549/DX cells; experiment: In vivo tumor growth of A549/DX xenografts; parameters: species or system nu/nu BALB/C mice; conditions: for Tumor growth, single agent: A549/DX xenografts in nu/nu BALB/C mice, 750 nmoles i.p. on day 1, 7, 14; for Tumor growth, co-administration with MK571 / Tumor growth, co-administration with cis-Pt: A549/DX xenografts; for Tumor growth, co-administration with MK571: 750 nmoles + 3 mg/kg MK571 i.p.; for Tumor growth, co-administration with cis-Pt: 750 nmoles + 50 mg/kg cis-Pt i.p.
Description: In order to translate in vivo the capability of F397, F400, and F421 to act as “sensitizers”, A549/DX cells were implanted in immune-deficient BALB/C mice, and once the tumor reached the volume of 50 mm^3, the mice were randomized and treated […] with the vehicle (saline solution) and/or cis-Pt.
(§1) Here, 1 × 10^6 A549/DX cells were mixed with 100 μl Matrigel implanted in 6-week-old female nu/nu BALB/C mice (Charles River Laboratories Italia, Calco, Italy), housed (5 per cage) under 12 h light/dark cycle, with food and drinking provided ad libitum. Tumor growth was measured daily by caliper, according to the equation (LxW2)/2, where L = tumor length and W = tumor width. When the tumor reached the volume of 50 mm^3, mice (n = 8/group) were randomized and treated as reported in the following groups, treated on day 1, 7, and 14 after randomization: (1) vehicle group (ctrl), treated intraperitoneally (i.p.) with 100 µL saline solution; (2) cis-Pt group, treated i.p. with 50 mg/kg cis-Pt, dissolved in 100 µL water/10% DMSO solution, according to Kopecka et al., 2015 [53]; (3) F397 group, treated i.p. with 750 nmoles of the compound, dissolved in 100 µL water/10% DMSO solution, corresponding to the maximum tolerated dose (not shown and Table 2); (4) F421 group, treated i.p. with 750 nmoles of the compound, dissolved in 100 µL water/10% DMSO solution i.p, corresponding to the maximum tolerated dose (not shown and Table 2); (5) cis-Pt/F397 group, treated i.p. with 50 mg/kg Cis-Pt and 750 nmoles of F397; (6) cis-Pt/F421 group, treated i.p. with 50 mg/kg cis-Pt and 750 nmoles of F421; (7) MK571 group, treated i.p. with 3 mg/kg MK571 dissolved in 100 µL water/10% DMSO solution, according to Jones et al., 1989 [56]; (8) MK571/F397 group, treated i.p. with 3 mg/kg MK571 and 750 nmoles of F397; (9) MK571/F421 group, treated i.p. with 3 mg/kg MK571 and 750 nmoles of F421. Tumor volumes were monitored daily. Animals were euthanized at day 21 after randomization with zolazepam (0.2 mL/kg) and xylazine (16 mg/kg). Lactate dehydrogenase (LDH), aspartate aminotransferase (AST), alanine aminotransferase (ALT), alkaline phosphatase (AP), creatinine, and creatine phosphokinase (CPK) were measured on blood samples collected immediately after euthanasia, using commercially available kits from Beckman Coulter Inc. (Beckman Coulter, Miami, FL, USA).

[6] = Hemato-chemical parameters and tolerability in treated mice; format: in vivo; parameters: Creatinine: unit not given here; conditions: for ALT / AP / AST / CPK / Creatinine / LDH: blood after euthanasia day 21, i.p. treatment day 1, 7, 14, means ± SD, n = 8; for Maximum tolerated dose: i.p., in 100 µL water/10% DMSO, mice (not shown)
Description: as §1

[7] = test system: A549/DX cells; experiment: Cell viability (MTT) of A549/DX cells at 72 h, alone and in co-administration; format: cell-based, human; conditions: for Cell viability / cytotoxic effect, compound alone: 10 μM; for Cell viability in co-administration with MRP1 inhibitor MK571: compound 10 μM + MK571 25 μM; for Cytotoxic effect in co-administration with cis-Pt: compound 10 μM + cis-Pt 25 μM
Description: Indeed, the accurate detection of cell viability in A549 cells was critical in calculating the SR in a reliable manner.
First, we wondered if there was a correlation between the inhibition of the MRP1 protein and the CS properties of the compounds.
The determination of cell growth was performed using an MTT assay at 24 or 72 h. On day 1, 10,000 cells/well were seeded into 96-well plates in a volume of 100 μL. […] In all the experiments, the various drug solvents (ethanol, DMSO) were added in each control to evaluate a possible solvent cytotoxicity. After the established incubation time with drugs, 10 μL MTT (0.5 mg/mL) was added to each well, and after 3 h incubation at 37°C, the supernatant was removed. The formazan crystals were solubilized using 100 μL of DMSO and the absorbance values at 570 and 630 nm were determined on the microplate reader Victor 3 from PerkinElmer Life Sciences. The absorbance of the untreated cells was considered equal to 100% cell viability; the viability of cells measured in each experimental condition was expressed as a percentage of viable cells in the considered condition vs. the viability of the untreated cells.

[8] = in vitro; format: cell-based; conditions: human
Excerpt: Nevertheless, the involvement of a sigma-2 receptor-mediated effect was ruled out by the detection of a low density of sigma-2 receptors in A549 cells (data not shown). […].

Row | Compound | pEC50 [1] | Mitochondrial ROS production with cis-Pt [2] | Mitochondrial ROS production, compound alone [2] | Mitochondrial ROS production with Mitotempol [2] | pEC50 [3] | pEC50 [4] | Tumor growth, single agent [5] | Tumor growth, co-administration with MK571 [5] | Tumor growth, co-administration with cis-Pt [5] | ALT [6] [U/L] | AP [6] [U/L] | AST [6] [U/L] | CPK [6] [U/L] | Creatinine [6] | LDH [6] [U/L] | Maximum tolerated dose [6] [nmol] | Cell viability / cytotoxic effect, compound alone [7] | Cell viability in co-administration with MRP1 inhibitor MK571 [7] | Cytotoxic effect in co-administration with cis-Pt [7] | pEC50 [8]
1 | COc1cc2c(cc1OC)CN(CCCCc1cn(-c3ccc(F)cc3)c3ccccc13)CC2 [F397, 6,7-dimethoxy-2-{4-[1-(4-fluorophenyl)-1H-indol-3-yl]butyl}-1,2,3,4-tetrahydroisoquinoline] | 4.66 | enforced by the concurrent administration of cis-Pt | increased the intramithocondrial ROS | reversed by Mitotempol | 6.68 | 4.75 | low growth reduction | abated the cytotoxic effect | greatly reduced tumor growth | 37 ± 108 | 112 ± 32 | 81 ± 24 | 324 ± 72 | 0.043 ± 0.009 | 6729 ± 492 | 750 | cytotoxic effect on their own | reverted by the MRP1 inhibitor MK571 | drastically increases upon co-administration with cis-Pt | 
2 | COc1cc2c(cc1OC)CN(C(=O)CCC1CCCc3c(OC)cccc31)CC2 (stereo not shown) [F400, 6,7-dimethoxy-2-[3-(5-methoxy-1,2,3,4-tetrahydronaphthalen-1-yl)propionyl]-1,2,3,4 tetrahydroisoquinoline] |  | enforced by the concurrent administration of cis-Pt | increased the intramithocondrial ROS | reversed by Mitotempol |  |  |  |  |  |  |  |  |  |  |  |  | cytotoxic effect on their own | reverted by the MRP1 inhibitor MK571 | drastically increases upon co-administration with cis-Pt | < 4.00
3 | COc1ccc(CNCCCCc2cn(-c3ccc(F)cc3)c3ccccc23)cc1OC [F421, N-{4-[1-(4-fluorophenyl)-1H-indol-3-yl]butyl}-3,4-dimethoxybenzylamine] |  | enforced by the concurrent administration of cis-Pt | increased the intramithocondrial ROS | reversed by Mitotempol |  |  | low growth reduction | abated the cytotoxic effect | greatly reduced tumor growth | 33 ± 13 | 143 ± 34 | 82 ± 37 | 321 ± 72 | 0.045 ± 0.011 | 7182 ± 892 | 750 | cytotoxic effect on their own | reverted by the MRP1 inhibitor MK571 | drastically increases upon co-administration with cis-Pt | < 4.00
